Source: patent US10738028B2, “Spiro three-membered ring, spiro five-membered ring peptide deformylase inhibitor and use thereof in antibacteria and anti-tumor” (priority 2016, dated 2020)
≈ marks a conversion by molar mass, not a printed value. Like-named read-outs stand apart in the source and are kept apart here.

Experiments:
Format in all cases: cell-based
[1] = system: BEL-7402 liver cancer cell line; test: CCK-8 proliferation inhibition; conditions: Homo sapiens, Bel-7402, 72 h, concentration of 30 μM
Description: (§1) 2. The present invention adopts the CCK-8 method to determine the proliferation inhibition effect of the spiro three-membered ring, spiro five-membered ring peptide deformylase inhibitor as described in Examples 1-80 against colorectal cancer cells, lung cancer cells, gastric cancer cells, liver cancer cells, and the like. […] The compound having the best activity synthesized in Example 64 was further tested for its inhibitory activity against other tumor cells including T cell leukemia, acute myeloid leukemia, cervical cancer, breast cancer, prostate cancer and osteosarcoma, and the like (see Table 7).
(§2) (1) HCT-116 colorectal cancer cell line, A549 lung cancer cell line, MGC-803 gastric cancer cell line, BEL-7402 liver cancer cell line, Jurkat T cell leukemia cell line, HL60 acute myeloid leukemia cell line, Hela cervical cancer cell line, MCF-7 breast cancer cell line, PC3 prostate cancer cell line and SAOS-2 osteosarcoma cell line were made into single cell suspension, 180 μL of which was inoculated into 96-well culture plate, which was cultured overnight in CO2 incubator (37° C., 5% CO2, 95% air).
(§3) (2) Each of the spiro three-membered ring, spiro five membered ring peptide deformylase inhibitors was dissolved in DMSO, and was further formulated into drug solution with required different final concentration using corresponding cell culture medium. The drug solutions were added to the above cells respectively (20 μL/well), with the control group added with 1‰ DMSO, and cultured in a CO2 incubator for 72 hours.
(§4) (3) After incubation for 72 hours, the culture solution was decanted, and 100 μL of 1:10 diluted CCK-8 solution was added.
(§5) Wherein, in step (1), the concentration of the single cell suspension was 2000 cells/well.
(§6) Wherein, in step (2), HCT-116 cells were cultured in McCoy's 5A medium (containing 10% newborn bovine serum, 1% double antibody); A549 and PC3 cells were cultured in F12 medium (containing 10% newborn bovine serum, 1% double antibody); MGC-803, BEL-7402, SAOS-2, Jurkat and HL60 cells were cultured in 1640 medium (containing 10% newborn bovine serum, 1% double antibody); and MCF-7 and Hela cells were cultured in DMEM high glucose medium (containing 10% newborn bovine serum, 1% double antibody).

[2] = system: MGC-803 gastric cancer cell line; test: CCK-8 proliferation inhibition; conditions: Homo sapiens, MGC-803, 72 h, concentration of 30 μM
Description: as §1, §2, §3, §4, §5, §6

[3] = system: A549 lung cancer cell line; test: CCK-8 proliferation inhibition; conditions: Homo sapiens, A549, 72 h, concentration of 30 μM
Description: as §1, §2, §3, §4, §5, §6

[4] = system: HCT-116 colorectal cancer cell line; test: CCK-8 proliferation inhibition; conditions: Homo sapiens, HCT-116, 72 h, concentration of 30 μM, 72 hours, CCK-8
Summary of the method: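 Growth inhibition is read by CCK-8 (1:10 dilution) after 72 h of compound exposure. HCT-116 cells grow in McCoy's 5A containing 10% newborn bovine serum at 2000 cells/well, with 1‰ DMSO as vehicle control.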

[5] = system: Enterococcus faecium (EFM); test: MIC, two-fold agar dilution (CLSI), clinical isolates
Summary of the method: (§7)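 Samples are serially diluted two-fold in agar following CLSI guidance. Plates are then inoculated with the tested strains. The lowest inhibiting concentration is recorded as MIC.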

[6] = system: Enterococcus faecalis (EFA); test: as above
Summary of the method: as §7

[7] = system: methicillin-sensitive Staphylococcus epidermidis (MSSE); test: as above
Summary of the method: as §7

[8] = system: Streptococcus pneoumoniae (SPN); test: as above
Summary of the method: as §7

[9] = system: methicillin-resistant Staphylococcus aureus (MRSA); test: as above
Summary of the method: as §7

[10] = system: methicillin-sensitive Staphylococcus aureus (MSSA); test: as above
Summary of the method: as §7

[11] = system: methicillin-resistant Staphylococcus epidermidis (MRSE); test: as above
Summary of the method: as §7

[12] = system: Escherichia coli (including ESBLs, non-ESBLs); test: as above
Summary of the method: as §7

[13] = system: Moraxella catarrhalis (BCA); test: as above
Summary of the method: as §7

Compound: O=CN(O)C[C@@H](CC1CCCC1)C(=O)N1CC2(CC2)C[C@H]1C(=O)NC1CC1 [Example 32, (S)-5-((R)-3-cyclopentyl-2-((N-hydroxyformamido)methyl)propionyl)-N-cyclopropyl-5-azaspiro[2.4]heptane-6-carboxamide]
- inhibition at 30 µM [1]: 46%
- inhibition at 30 µM [2]: 14%
- inhibition at 30 µM [3]: 14%
- inhibition at 30 µM ([4]; Table 5, read-out: Inhibition of proliferation, Colorectal cancer HCT116): ≥ 30%
- inhibition at 30 µM ([4]; read-out: HCT116 inhibition rate/%): 30%
- MIC (anti-bacterial activity) ([5]; strain EFM 15-1): 4 µg/mL (≈ 10.6 µM)
- MIC (anti-bacterial activity) ([5]; strain EFM 15-2): 4 µg/mL (≈ 10.6 µM)
- MIC (anti-bacterial activity) ([5]; strain EFM 15-3): 1 µg/mL (≈ 2.65 µM)
- MIC (anti-bacterial activity) ([5]; strain EFM 15-4): 4 µg/mL (≈ 10.6 µM)
- MIC (anti-bacterial activity) ([5]; strain EFM 15-5): 4 µg/mL (≈ 10.6 µM)
- MIC (anti-bacterial activity) ([5]; strain EFM 15-6): 4 µg/mL (≈ 10.6 µM)
- MIC (anti-bacterial activity) ([6]; strain EFA 15-1): 8 µg/mL (≈ 21.2 µM)
- MIC (anti-bacterial activity) ([6]; strain EFA 15-2): 8 µg/mL (≈ 21.2 µM)
- MIC (anti-bacterial activity) ([6]; strain EFA 15-3): 8 µg/mL (≈ 21.2 µM)
- MIC (anti-bacterial activity) ([6]; strain EFA 15-4): 8 µg/mL (≈ 21.2 µM)
- MIC (anti-bacterial activity) ([6]; strain EFA 15-5): 8 µg/mL (≈ 21.2 µM)
- MIC (anti-bacterial activity) ([6]; strain EFA 15-6): 8 µg/mL (≈ 21.2 µM)
- MIC (anti-bacterial activity) ([6]; strain EFA 15-9): 8 µg/mL (≈ 21.2 µM)
- MIC (anti-bacterial activity) ([7]; strain MSSE 15-3): 2 µg/mL (≈ 5.3 µM)
- MIC (anti-bacterial activity) ([7]; strain MSSE 15-4): 2 µg/mL (≈ 5.3 µM)
- MIC (anti-bacterial activity) ([7]; strain MSSE 15-5): 2 µg/mL (≈ 5.3 µM)
- MIC (anti-bacterial activity) ([7]; strain MSSE 15-6): 2 µg/mL (≈ 5.3 µM)
- MIC (anti-bacterial activity) ([8]; strain SPN 16-2): 1 µg/mL (≈ 2.65 µM)
- MIC (anti-bacterial activity) ([8]; strain SPN 16-4): 8 µg/mL (≈ 21.2 µM)
- MIC (anti-bacterial activity) ([9]; strain MRSA 15-1): 1 µg/mL (≈ 2.65 µM)
- MIC (anti-bacterial activity) ([9]; strain MRSA 15-2): 1 µg/mL (≈ 2.65 µM)
- MIC (anti-bacterial activity) ([9]; strain MRSA 15-3): 1 µg/mL (≈ 2.65 µM)
- MIC (anti-bacterial activity) ([9]; strain MRSA 15-4): 1 µg/mL (≈ 2.65 µM)
- MIC (anti-bacterial activity) ([10]; strain MSSA 15-3): 2 µg/mL (≈ 5.3 µM)
- MIC (anti-bacterial activity) ([10]; strain MSSA 15-4): 1 µg/mL (≈ 2.65 µM)
- MIC (anti-bacterial activity) ([10]; strain MSSA 15-5): 1 µg/mL (≈ 2.65 µM)
- MIC (anti-bacterial activity) ([10]; strain MSSA 15-6): 2 µg/mL (≈ 5.3 µM)
- MIC (anti-bacterial activity) ([11]; strain MRSE 15-1): 1 µg/mL (≈ 2.65 µM)
- MIC (anti-bacterial activity) ([11]; strain MRSE 15-2): 2 µg/mL (≈ 5.3 µM)
- MIC (anti-bacterial activity) ([11]; strain MRSE 15-3): 8 µg/mL (≈ 21.2 µM)
- MIC (anti-bacterial activity) ([11]; strain MRSE 15-7): 8 µg/mL (≈ 21.2 µM)
- MIC (anti-bacterial activity) ([12]; strain ECO+ 15-1): 32 µg/mL (≈ 84.8 µM)
- MIC (anti-bacterial activity) ([12]; strain ECO+ 15-2): > 32 µg/mL
- MIC (anti-bacterial activity) ([12]; strain ECO+ 15-3): > 32 µg/mL
- MIC (anti-bacterial activity) ([12]; strain ECO+ 15-4): 32 µg/mL (≈ 84.8 µM)
- MIC (anti-bacterial activity) ([12]; strain ECO− 15-1): 32 µg/mL (≈ 84.8 µM)
- MIC (anti-bacterial activity) ([12]; strain ECO− 15-2): > 32 µg/mL
- MIC (anti-bacterial activity) ([12]; strain ECO− 15-3): > 32 µg/mL
- MIC (anti-bacterial activity) ([12]; strain ECO− 15-4): > 32 µg/mL
- Anti-bacterial activity (MIC), strain BCA 14-10 ([13]; clinical isolate BCA 14-10): 1 µg/mL
- MIC (anti-bacterial activity) ([13]; strain BCA 14-1): 4 µg/mL (≈ 10.6 µM)
- MIC (anti-bacterial activity) ([13]; strain BCA 14-4): 4 µg/mL (≈ 10.6 µM)
- MIC (anti-bacterial activity) ([13]; strain BCA 14-5): 2 µg/mL (≈ 5.3 µM)
- MIC (anti-bacterial activity) ([13]; strain BCA 14-6): 8 µg/mL (≈ 21.2 µM)
- MIC (anti-bacterial activity) ([13]; strain BCA 14-7): 1 µg/mL (≈ 2.65 µM)
- MIC (anti-bacterial activity) ([13]; strain BCA 14-8): 8 µg/mL (≈ 21.2 µM)
